Consider five compounds from patent publication US7511144B2, “Reverse hydroxamic acid derivatives” (Kaken Pharmaceutical Co., Ltd., priority 2001, dated 2009).

For one test, the target named is T1, Human MMP3 (Homo sapiens, UniProt P08254).
T1 construct: purchased Calbiochem 444217
In words: MMP3 inhibition experiment. Format: biochemical. The note with it: concentration required for 50% inhibition of enzyme activity; read-out: IC50 value MMP-3. The gist of the method:
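Fluorescence-quenched substrate NFF-3 (MOCAc/Dnp peptide, 20 μM as prepared) cleaved by 5 ng human MMP3 over 5 hours at 37° C, with inhibition measured from substrate fluorescence.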

The subject of test [1] is TNF-α production (release). In words: Study for suppression of TNF-α production (release) in vivo. The note with it: male Lewis rats, LPS 1 mL/kg i.v.; test compound 3 mg/kg subcutaneous 30 minutes later; plasma TNF-α 90 minutes after LPS (ELISA). In general terms: An ELISA detects its analyte on a solid surface through an enzyme-linked reagent.
Experimental: Lipopolysaccharide (LPS) from E. coli (available from SIGMA) was dissolved in physiological saline to prepare a solution of LPS (1 mg/mL). […] The rats received the LPS solution (1 mL/kg) intravenously, and 30 minutes later, the prepared solution of the test compound was administered subcutaneously (5 mL/kg, containing 3 mg of test compound/kg). 90 minutes after administration of LPS, blood was collected from the tail vein and centrifuged for 10 minutes at 3000 rpm at 4° C. to obtain plasma. The plasma TNF-α concentration was determined by an ELISA kit specific for rat TNF-α.
A further test concerns the target T2, Human MMP17 (Homo sapiens, UniProt Q9ULZ9).
T2 construct: purchased Calbiochem 475940
T2 sequence (Q9ULZ9 126-300 limits assumed): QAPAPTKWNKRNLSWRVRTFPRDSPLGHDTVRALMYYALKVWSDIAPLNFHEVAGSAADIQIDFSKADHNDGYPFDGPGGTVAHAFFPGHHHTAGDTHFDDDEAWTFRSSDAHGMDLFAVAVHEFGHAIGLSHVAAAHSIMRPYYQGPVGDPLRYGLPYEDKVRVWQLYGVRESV
In words: MMP17 inhibition test. It counts as biochemical. The following applies: concentration required for 50% inhibition of enzyme activity; read-out: IC50 value MMP-17.

Another test addresses T3, Human MMP13 (Homo sapiens, UniProt P45452).
T3 construct: purchased Chemicon CC068
In words: MMP13 inhibition experiment. The note with it: concentration required for 50% inhibition of enzyme activity; read-out: IC50 value MMP-13. Format: biochemical.

Another test concerns the target T4, TACE (Homo sapiens, UniProt P78536).
T4 construct: made in house; host or cells: mammalian cells or insect cells
In words: TACE inhibition experiment (in vitro). Format: biochemical.

For a further test, the target named is T5, Human MMP9 (Homo sapiens, UniProt P14780).
T5 construct: purchased Calbiochem 444231
T5 sequence (P14780 107-707 limits assumed): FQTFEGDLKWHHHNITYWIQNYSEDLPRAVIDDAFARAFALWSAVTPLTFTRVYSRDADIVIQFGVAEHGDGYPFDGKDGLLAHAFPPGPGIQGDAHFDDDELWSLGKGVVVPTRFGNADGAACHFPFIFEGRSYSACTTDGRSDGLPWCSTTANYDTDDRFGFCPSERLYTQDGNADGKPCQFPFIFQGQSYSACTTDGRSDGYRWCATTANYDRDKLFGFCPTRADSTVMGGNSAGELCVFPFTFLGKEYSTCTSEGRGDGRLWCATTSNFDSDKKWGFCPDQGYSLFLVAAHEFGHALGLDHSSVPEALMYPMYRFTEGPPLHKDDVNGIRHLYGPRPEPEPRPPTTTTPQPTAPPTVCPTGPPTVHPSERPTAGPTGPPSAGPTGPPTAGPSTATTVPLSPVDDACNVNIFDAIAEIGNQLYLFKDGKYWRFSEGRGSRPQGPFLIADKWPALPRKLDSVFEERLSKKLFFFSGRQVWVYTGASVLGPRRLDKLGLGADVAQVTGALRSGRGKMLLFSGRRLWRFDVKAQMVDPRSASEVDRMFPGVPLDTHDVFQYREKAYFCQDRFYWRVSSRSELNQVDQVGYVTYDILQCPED
In words: MMP9 inhibition experiment. It counts as biochemical. The note with it: read-out: IC50 value MMP-9.

Another test deals with T6, Human MMP8 (Homo sapiens, UniProt P22894).
T6 construct: purchased Calbiochem 444229
T6 sequence (P22894 101-467): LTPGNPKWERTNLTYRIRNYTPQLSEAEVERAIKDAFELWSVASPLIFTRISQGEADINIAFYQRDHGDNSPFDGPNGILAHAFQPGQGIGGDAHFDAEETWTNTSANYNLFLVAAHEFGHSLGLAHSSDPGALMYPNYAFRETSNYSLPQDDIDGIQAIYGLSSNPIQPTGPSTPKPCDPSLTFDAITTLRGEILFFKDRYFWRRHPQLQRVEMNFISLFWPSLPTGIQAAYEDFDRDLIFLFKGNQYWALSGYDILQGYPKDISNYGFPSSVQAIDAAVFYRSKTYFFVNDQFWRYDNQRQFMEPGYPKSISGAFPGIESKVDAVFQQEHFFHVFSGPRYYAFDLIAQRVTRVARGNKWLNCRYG
In words: MMP8 inhibition experiment. It counts as biochemical. The note with it: concentration required for 50% inhibition of enzyme activity; read-out: IC50 value MMP-8. The gist of the method: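 Human MMP8 activated with APMA for 1 h at 37° C, then incubated with fluorogenic peptide MOCAc-Pro-Leu-Gly-Leu-A2pr(Dnp)-Ala-Arg-NH2 (20 μM stock) for 5 hours at 37° C. Fluorescent substrate cleavage serves as read-out.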

The next test deals with T7, Human MMP1 (Homo sapiens, UniProt P03956).
T7 construct: purchased Calbiochem 444208
T7 sequence (P03956 100-469): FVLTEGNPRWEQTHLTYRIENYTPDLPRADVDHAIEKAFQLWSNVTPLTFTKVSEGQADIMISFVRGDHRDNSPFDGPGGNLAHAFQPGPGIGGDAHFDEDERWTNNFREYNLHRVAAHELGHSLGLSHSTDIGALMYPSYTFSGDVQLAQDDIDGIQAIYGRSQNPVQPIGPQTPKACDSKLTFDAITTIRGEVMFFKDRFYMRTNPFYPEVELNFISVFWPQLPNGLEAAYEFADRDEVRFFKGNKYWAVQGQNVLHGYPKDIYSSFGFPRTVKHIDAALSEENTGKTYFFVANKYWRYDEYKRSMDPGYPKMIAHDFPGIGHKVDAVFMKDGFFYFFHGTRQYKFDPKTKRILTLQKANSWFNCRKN
In words: MMP1 inhibition experiment. The note with it: read-out: IC50 value MMP-1. It counts as biochemical.

A further test concerns the target T8, Human MMP14 (Homo sapiens, UniProt P50281).
T8 construct: purchased Biogenesis or Calbiochem 5980-1461 or 475935
In words: MMP14 inhibition experiment. It counts as biochemical. The note with it: concentration required for 50% inhibition of enzyme activity; read-out: IC50 value MMP-14. The gist of the method:
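Fluorescence assay: substrate Dnp-Pro-Cha-Gly-Cys(Me)-His-Ala-Lys(Nma)-NH2 (20 μM before equal-volume mixing) incubated at 37° C for 5 hours with 4 ng human MMP14.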

A further test addresses T9, Human MMP2 (Homo sapiens, UniProt P08253).
T9 construct: purchased Calbiochem 444213
T9 sequence (P08253 110-660): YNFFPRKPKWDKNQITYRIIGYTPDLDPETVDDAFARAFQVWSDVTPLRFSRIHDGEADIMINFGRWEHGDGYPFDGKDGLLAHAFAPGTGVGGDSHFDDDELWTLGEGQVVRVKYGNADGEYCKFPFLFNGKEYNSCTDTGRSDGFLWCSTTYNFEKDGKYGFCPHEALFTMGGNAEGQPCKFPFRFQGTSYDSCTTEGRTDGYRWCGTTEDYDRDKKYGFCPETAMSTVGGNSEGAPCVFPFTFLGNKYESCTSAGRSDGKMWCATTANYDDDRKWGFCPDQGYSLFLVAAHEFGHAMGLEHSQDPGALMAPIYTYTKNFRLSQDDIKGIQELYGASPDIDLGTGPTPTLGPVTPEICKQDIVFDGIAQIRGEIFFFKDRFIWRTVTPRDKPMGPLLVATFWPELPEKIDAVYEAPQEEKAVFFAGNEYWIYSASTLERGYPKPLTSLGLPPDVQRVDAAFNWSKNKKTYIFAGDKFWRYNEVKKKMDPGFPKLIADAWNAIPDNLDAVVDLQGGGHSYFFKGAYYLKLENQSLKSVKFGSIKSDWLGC
In words: MMP2 inhibition experiment. It counts as biochemical. The following applies: concentration required for 50% inhibition of enzyme activity; read-out: IC50 value MMP-2.

Like-named read-outs stand apart in the source and are kept apart here.

T1 sequence (P08254 100-272 limits assumed): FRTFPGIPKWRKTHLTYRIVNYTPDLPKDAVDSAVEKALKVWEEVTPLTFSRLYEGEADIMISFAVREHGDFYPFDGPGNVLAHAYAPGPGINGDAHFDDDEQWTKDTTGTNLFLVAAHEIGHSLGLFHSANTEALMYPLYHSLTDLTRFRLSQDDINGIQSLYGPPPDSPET
T4 sequence (P78536 215-824): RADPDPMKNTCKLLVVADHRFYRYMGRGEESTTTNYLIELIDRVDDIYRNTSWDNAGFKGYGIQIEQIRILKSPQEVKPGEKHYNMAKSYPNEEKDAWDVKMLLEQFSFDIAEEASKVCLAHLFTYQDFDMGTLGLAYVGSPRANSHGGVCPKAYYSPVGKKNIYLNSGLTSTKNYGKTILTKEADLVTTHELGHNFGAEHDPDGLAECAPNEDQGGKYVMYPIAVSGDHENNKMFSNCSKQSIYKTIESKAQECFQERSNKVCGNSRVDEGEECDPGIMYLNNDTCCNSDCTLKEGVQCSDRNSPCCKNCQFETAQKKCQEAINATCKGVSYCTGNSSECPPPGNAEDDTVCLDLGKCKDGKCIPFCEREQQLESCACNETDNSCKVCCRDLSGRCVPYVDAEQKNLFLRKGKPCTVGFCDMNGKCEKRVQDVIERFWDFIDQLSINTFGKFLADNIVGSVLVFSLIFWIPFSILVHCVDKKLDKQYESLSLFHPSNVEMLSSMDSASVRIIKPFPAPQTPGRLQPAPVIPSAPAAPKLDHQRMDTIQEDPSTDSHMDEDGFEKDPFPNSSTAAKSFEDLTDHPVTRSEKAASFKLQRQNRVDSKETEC
Experimental for Human MMP13: Human MMP13 (Chemicon #CC068) in amount of 90 μL (200 ng) was activated by mixing with 10 μL of 10 mM APMA, followed by reaction for 1 hour at 37° C. This enzyme solution in amount of 0.6 μL was diluted to 90 μL with the assay buffer A, which was added to 90 μL of 20 μM fluorescent substrate (Dnp-Pro-Cha-Gly-Cys(Me)-His-Ala-Lys(Nma)-NH2) prepared in the assay buffer B, followed by reaction for 4 hours at 37° C.
Experimental for Human MMP2: This enzyme solution in amount of 10 μL was diluted to 90 μL with the assay buffer A, which was added to 90 μL of 20 μM fluorescent substrate (MOCAc((7-methoxycoumarin-4-yl)acetyl)-Pro-Leu-Gly-Leu-A2pr(Dnp)-Ala-Arg-NH2, Peptide Institute, Inc., #3163-v) prepared in the assay buffer B, followed by reaction for 5 hours at 37° C.
Experimental for Human MMP9: The methods of inhibition experiments carried out for various MMPs are described below.
This enzyme solution in amount of 1 μL was diluted to 90 μL with the assay buffer A, which was added to 90 μL of 20 μM fluorescent substrate (Dnp-Pro-Cha-Gly-Cys(Me)-His-Ala-Lys(Nma)-NH2) prepared in the assay buffer B, followed by reaction for 4 hours at 37° C.
Experimental for TACE: TACE inhibition experiments were conducted using TACE obtained as above as an enzyme and by measuring TACE activity in the presence or absence of a test substance using Nma (N-metylanthranilic acid)-[sequence]Dnp(dinitrophenyl)-D-Arg-NH2 being a fluorescent synthetic substrate which contains the sequence of cleavage site of membrane-bound TNF by TACE, as a substrate.
More specifically, 14 units of an enzyme solution (1 unit is defined as the amount of enzyme which degrades 1 pmol of the substrate per minute at 25° C.) which was prepared in 90 μL of assay buffer A (50 mM Tris-HCl buffer (pH 7.5) containing 200 mM sodium chloride, 5 mM calcium chloride, 10 μM zinc sulfate, 0.004% sodium azide and 2 mg/mL bovine serum albumin) and 90 μL of 20 μM fluorescent synthetic substrate prepared in assay buffer B (50 mM Tris-HCl buffer (pH 7.5) containing 200 mM sodium chloride, 5 mM calcium chloride, 10 μM zinc sulfate, 0.004% sodium azide and 0.05% PLURONIC F-68) are mixed and reacted for 2 hours at 37° C.

Turning to `Cc1cc(COc2ccc(S(=O)(=O)CC(C=C3CCN(CC(C)C)CC3)N(O)C=O)cc2)c2ccccc2n1` (stereo not drawn) [Example I-24, N-Hydroxy-N-{1-(1-isobutylpiperidin-4-ylidenemethyl)-2-[4-(2-methylquinolin-4-ylmethoxy)benzenesulfonyl]ethyl}formamide], the IC50 (as a rule, the concentration that gives 50% inhibition) on Human MMP3 is 10 µM; at Human MMP17, 4 µM; on Human MMP13, 40 µM; on TACE (concentration required for 50% inhibition of enzyme activity), 0.006 µM. Besides, the “Suppression rate of TNF-α production (release) (%)” value in test [1] turned out to be 56.0%.

On to `Cc1cc(COc2ccc(S(=O)(=O)CC(C=C3CCOCC3)N(O)C=O)cc2)cc(C)n1` (stereo not drawn) [Example I-115], for which the IC50 at Human MMP9 was more than 100 µM; on Human MMP8 it was 6 µM; on Human MMP3, 40 µM; at Human MMP1 it was more than 100 µM; at Human MMP17, 42 µM; at Human MMP14, more than 100 µM. Also, the IC50 on Human MMP13 came to 8 µM; at Human MMP2, 4 µM; against TACE, 0.14 µM.

Take `Cc1cc(COc2ccc(S(=O)(=O)CC(CC3CCC(=O)CC3)N(O)C=O)cc2)c2ccccc2n1` (stereo not drawn) [Example I-2, N-Hydroxy-N-[2-{4-(2-methylquinolin-4-ylmethoxy)benzenesulfonyl}-1-(4-oxocyclohexylmethyl)ethyl]formamide]: the IC50 at Human MMP9 stood at 50 µM; on Human MMP3, 1.5 µM; at Human MMP1, 60 µM; at Human MMP17 it was 0.4 µM; at Human MMP14, 53 µM; on Human MMP13, 6 µM. Also, in test [1], the “Suppression rate of TNF-α production (release) (%)” value came out at 42.3%.

For `Cc1cc(COc2ccc(S(=O)(=O)CC(N(O)C=O)C3(C)CCOCC3)cc2)c2ccccc2n1` (stereo not drawn) [Example I-60, N-hydroxy-N-{2-[4-(2-methylquinolin-4-ylmethoxy)benzenesulfonyl]-1-(4-methyltetrahydropyran-4-yl)ethyl}formamide], the IC50 at Human MMP9 is more than 100 µM; on Human MMP8, 10 µM; at Human MMP3, 2.5 µM; at Human MMP1 it was more than 100 µM; at Human MMP17, 0.51 µM; at Human MMP14, more than 100 µM. Moreover, the figures for the 50% inhibitory concentration (IC50) on Human MMP13, on Human MMP2 and at TACE were 56 µM, 60 µM and 0.0083 µM, respectively.

On to `COc1ccc(C(=O)N2CCN(CC(CS(=O)(=O)c3ccc(OCc4cc(C)nc5ccccc45)cc3)N(O)C=O)CC2)cc1` (stereo not drawn) [Example I-54], for which the IC50 amounted to 31 µM on Human MMP9; 42 µM at Human MMP8; 1.2 µM at Human MMP3; 70 µM on Human MMP1; 0.85 µM on Human MMP17; 43 µM at Human MMP14. Besides, the concentration for half-maximal inhibition (IC50) was found to be 23 µM on Human MMP13, 12 µM at Human MMP2 and 0.008 µM against TACE.
